Assay results published in the supplement of paper PMC10331698.
± gives the standard deviation of the averaged measurements.

How the values were obtained:
Assay in all cases: level (log10 ratio to DMSO vehicle control); higher = higher biomarker level / cell amount than vehicle control
Details in all cases: in DMSO
[1] = compound: C=CC(=O)OCC(F)(F)C(F)(F)C(F)(F)C(F)(F)C(F)(F)C(F)(F)C(F)(F)C(F)F [1H,1H,9H-Perfluorononyl acrylate]
Method: (§1)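 BioMAP Diversity Plus panel of 12 human primary cell co-culture systems (3C, 4H, LPS, SAg, BT, BF4T, BE3C, CASM3C, HDF3CGF, KF3CT, MyoF, Mphg). Compounds were added 1 h before stimulation and left for 24 h (MyoF 48 h; BT 72 h for soluble read-outs or 6 d for IgG). Biomarkers were read by ELISA, cytotoxicity by SRB, PBMC viability and proliferation by Alamar Blue. Each well value was divided by the mean of 8 DMSO control wells on the same plate and log10 transformed; duplicate blinded samples were tested at 4 concentrations.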

[2] = compound: Cc1ccc(S(=O)(=O)OCC(F)(F)C(F)(F)C(F)(F)C(F)(F)C(F)(F)C(F)F)cc1 [1H,1H,7H-Perfluoroheptyl 4-methylbenzenesulfonate]
Method: as §1

[3] = compound: O=C(O)C(F)(F)C(F)(F)C(=O)O [Tetrafluorosuccinic acid]
Method: as §1

[4] = compound: O=P(O)(O)CCC(F)(F)C(F)(F)C(F)(F)C(F)(F)C(F)(F)C(F)(F)F [2-(Perfluorohexyl)ethylphosphonic acid]
Method: as §1

[5] = compound: OC(C(F)(F)F)(C(F)(F)F)C(O)(C(F)(F)F)C(F)(F)F [Perfluoropinacol]
Method: as §1

[6] = compound: OCC(F)(F)C(F)(F)C(F)(F)C(F)(F)C(F)(F)C(F)(F)C(F)(F)C(F)(F)C(F)(F)C(F)(F)C(F)(F)F [11:1 Fluorotelomer alcohol]
Method: as §1

[7] = compound: OCC(F)(F)C(F)(F)C(F)(F)C(F)(F)C(F)(F)C(F)(F)C(F)(F)C(F)(F)CO [1H,1H,10H,10H-Perfluorodecane-1,10-diol]
Method: as §1

| Test System | level (log10) ([1]; 6700 nM) | level (log10) ([1]; 20000 nM) | level (log10) ([1]; 60000 nM) | level (log10) ([2]; 6700 nM) | level (log10) ([2]; 20000 nM) | level (log10) ([2]; 60000 nM) | level (log10) ([3]; 6700 nM) | level (log10) ([3]; 20000 nM) | level (log10) ([3]; 60000 nM) | level (log10) ([4]; 6700 nM) | level (log10) ([4]; 20000 nM) | level (log10) ([4]; 60000 nM) | level (log10) ([5]; 6700 nM) | level (log10) ([5]; 20000 nM) | level (log10) ([6]; 1100 nM) | level (log10) ([6]; 3300 nM) | level (log10) ([6]; 10000 nM) | level (log10) ([7]; 6700 nM) | level (log10) ([7]; 20000 nM) | level (log10) ([7]; 60000 nM) |
| --- | --- | --- | --- | --- | --- | --- | --- | --- | --- | --- | --- | --- | --- | --- | --- | --- | --- | --- | --- | --- |
| BF4T:uPA | -0.0055 ± 0.023 | -0.0075 ± 0.018 | -0.002 ± 0.018 | -0.0185 ± 0.00071 | -0.01 ± 0.0042 | -0.0165 ± 0.0064 | -0.004 ± 0.0014 | -0.0185 ± 0.0064 | -0.0095 ± 0.0092 | -0.0445 ± 0.037 | -0.0475 ± 0.028 | -0.0465 ± 0.013 | -0.0305 ± 0.019 | -0.0365 ± 0.0064 | 0 | -0.005 ± 0.0071 | 0.0015 ± 0.0064 | -0.014 ± 0.017 | -0.029 ± 0.0042 | -0.06 |
| BF4T:CD54/ICAM-1 | -0.0365 ± 0.033 | -0.0385 ± 0.049 | -0.0455 ± 0.019 | -0.0055 ± 0.018 | -0.01 ± 0.0028 | -0.021 ± 0.0085 | -0.0145 ± 0.013 | -0.018 ± 0.0042 | -0.0295 ± 0.0021 | -0.022 ± 0.018 | -0.0245 ± 0.00071 | -0.0125 ± 0.0092 | -0.0015 ± 0.011 | -0.018 ± 0.0028 | -0.0125 ± 0.005 | -0.015 ± 0.018 | -0.0015 ± 0.00071 | -0.031 ± 0.02 | -0.091 ± 0.0071 | -0.138 |
| LPS:CD106/VCAM-1 | -0.002 ± 0.011 | -0.0365 ± 0.019 | -0.0565 ± 0.0021 | 0.01 ± 0.0071 | 0.006 ± 0.0014 | 0.025 ± 0.011 | -0.0245 ± 0.026 | -0.007 ± 0.0057 | 0.002 ± 0.018 | -0.021 ± 0.021 | -0.0185 ± 0.0021 | -0.011 ± 0.023 | 0.0045 ± 0.013 | -0.0825 ± 0.015 | -0.025 ± 0.0042 | -0.025 ± 0.02 | -0.015 ± 0.0028 | -0.034 ± 0.028 | -0.0485 ± 0.012 | -0.052 |
| BE3C:HLA-DR | -0.0215 ± 0.029 | -0.01 ± 0.021 | -0.0305 ± 0.012 | -0.0155 ± 0.005 | -0.0195 ± 0.012 | -0.025 ± 0.0014 | -0.027 ± 0.0028 | -0.0045 ± 0.0035 | 0.004 ± 0.0014 | -0.0045 ± 0.018 | -0.012 ± 0.021 | 0.01 ± 0.038 | -0.0145 ± 0.0064 | -0.0565 ± 0.019 | -0.0755 ± 0.037 | -0.141 ± 0.015 | -0.163 ± 0.0042 | -0.0495 ± 0.019 | -0.174 ± 0.022 | -0.517 |
| BF4T:Keratin 8/18 | -0.022 ± 0.013 | -0.007 ± 0.013 | -0.0385 ± 0.037 | 0.0085 ± 0.039 | 0.005 ± 0.028 | -0.0285 ± 0.028 | 0.013 ± 0.018 | -0.0115 ± 0.037 | -0.0165 ± 0.03 | -0.0045 ± 0.015 | -0.0065 ± 0.012 | 0.0105 ± 0.022 | -0.013 ± 0.0099 | -0.036 ± 0.0071 | 0.0025 ± 0.026 | -0.009 ± 0.03 | -0.0075 ± 0.025 | 0.005 ± 0.028 | 0.027 ± 0.018 | -0.024 |
| BE3C:CD87/uPAR | 0.0055 ± 0.023 | 0.0395 ± 0.012 | 0.0365 ± 0.016 | 0.026 ± 0.017 | -0.004 ± 0.0085 | 0.005 ± 0.033 | 0.0095 ± 0.021 | -0.0045 ± 0.00071 | 0.012 ± 0.014 | -0.035 ± 0.065 | -0.029 ± 0.047 | -0.0125 ± 0.12 | -0.0675 ± 0.019 | -0.231 ± 0.016 | -0.035 ± 0.0014 | -0.0795 ± 0.012 | -0.0385 ± 0.026 | -0.013 ± 0.011 | -0.042 ± 0.024 | -0.337 |
| BE3C:EGFR | -0.0025 ± 0.005 | 0.003 ± 0.0071 | -0.014 ± 0.023 | -0.0255 ± 0.0035 | -0.03 ± 0.035 | -0.027 ± 0.0028 | -0.008 ± 0.0042 | -0.0055 ± 0.019 | 0.003 ± 0.0042 | -0.0045 ± 0.0021 | -0.015 ± 0.014 | 0.0005 ± 0.022 | 0.0065 ± 0.00071 | -0.027 ± 0.0085 | -0.022 ± 0.011 | -0.003 ± 0.018 | -0.019 ± 0.0099 | -0.031 ± 0.0085 | -0.042 | -0.102 |
| BF4T:MMP-9 | 0.0145 ± 0.019 | 0.0235 ± 0.019 | 0.031 ± 0.0014 | 0.0045 ± 0.012 | -0.008 ± 0.011 | -0.0435 ± 0.023 | -0.003 ± 0.021 | -0.0075 ± 0.022 | -0.014 ± 0.0085 | -0.0155 ± 0.00071 | -0.0015 ± 0.0078 | 0.018 ± 0.035 | -0.0245 ± 0.00071 | -0.0515 ± 0.0092 | -0.025 ± 0.03 | -0.02 ± 0.0071 | -0.03 ± 0.0057 | -0.0185 ± 0.015 | -0.063 ± 0.0028 | -0.135 |
| 3C:SRB | 0.0015 ± 0.0078 | 0.016 ± 0.0042 | -0.014 ± 0.023 | 0.006 ± 0.0071 | -0.016 ± 0.013 | -0.125 ± 0.0042 | -0.0065 ± 0.011 | -0.0135 ± 0.0078 | -0.021 ± 0.017 | 0.0015 ± 0.032 | 0.0085 ± 0.015 | -0.006 ± 0.028 | -0.0665 ± 0.013 | -0.188 ± 0.0028 | -0.043 ± 0.0014 | -0.115 ± 0.021 | -0.116 ± 0.014 | 0.01 ± 0.034 | -0.021 ± 0.033 | -0.106 |
| BF4T:MMP-1 | -0.0185 ± 0.0021 | -0.0005 ± 0.005 | 0.001 ± 0.0057 | 0.0105 ± 0.046 | -0.018 ± 0.038 | 0.013 ± 0.037 | 0.016 ± 0.02 | 0.008 ± 0.013 | 0.0295 ± 0.0035 | -0.0045 ± 0.0092 | -0.004 | 0.0035 ± 0.026 | -0.0245 ± 0.00071 | -0.0165 ± 0.0035 | -0.0095 ± 0.005 | -0.01 | -0.0015 ± 0.016 | -0.003 ± 0.011 | -0.0505 ± 0.011 | -0.007 |
| 3C:CXCL8/IL-8 | 0.001 ± 0.03 | 0.02 ± 0.023 | 0.029 ± 0.033 | -0.0075 ± 0.0021 | -0.0245 ± 0.0078 | -0.061 ± 0.017 | -0.0265 ± 0.015 | -0.0235 ± 0.012 | -0.0005 ± 0.049 | -0.0115 ± 0.05 | -0.0035 ± 0.0021 | 0.0545 ± 0.03 | 0.0215 ± 0.012 | -0.0255 ± 0.026 | -0.022 ± 0.027 | -0.0245 ± 0.046 | 0.019 ± 0.082 | -0.013 ± 0.035 | -0.007 ± 0.024 | 0.03 |
| SAg:CXCL9/MIG | -0.0135 ± 0.0021 | 0.003 ± 0.0099 | -0.0155 ± 0.0078 | 0.001 ± 0.0042 | -0.028 | -0.0075 ± 0.0064 | -0.006 ± 0.0014 | 0.003 | 0.013 ± 0.0099 | 0.0025 ± 0.0035 | -0.012 | 0.0005 ± 0.022 | -0.002 ± 0.0028 | -0.005 ± 0.0014 | -0.004 ± 0.03 | -0.0175 ± 0.035 | 0.012 ± 0.03 | -0.022 ± 0.0042 | 0.0005 ± 0.019 | -0.021 |
| BE3C:CXCL11/I-TAC | 0.0045 ± 0.00071 | 0.0085 ± 0.013 | -0.005 ± 0.0085 | -0.0205 ± 0.0064 | -0.0385 ± 0.00071 | -0.0185 ± 0.019 | 0.002 ± 0.0042 | -0.0025 ± 0.0092 | -0.002 ± 0.0014 | -0.0205 ± 0.0078 | -0.0235 ± 0.0064 | -0.0415 ± 0.032 | 0.0435 ± 0.00071 | 0.0115 ± 0.021 | -0.0085 ± 0.018 | -0.025 ± 0.024 | -0.005 ± 0.013 | -0.0145 ± 0.0078 | -0.149 ± 0.025 | -0.901 |
| LPS:CD69 | -0.0345 ± 0.011 | -0.062 ± 0.011 | -0.102 ± 0.023 | -0.026 ± 0.048 | -0.0665 ± 0.088 | -0.055 | -0.0265 ± 0.0035 | -0.0405 ± 0.0092 | -0.029 ± 0.025 | -0.026 ± 0.075 | 0.001 ± 0.051 | 0.0815 ± 0.029 | -0.105 ± 0.063 | -0.192 ± 0.064 | 0.006 ± 0.021 | 0.004 | -0.003 ± 0.031 | -0.0215 ± 0.073 | -0.039 ± 0.045 | -0.111 |
| BT:sIL-17F | -0.175 ± 0.05 | -0.483 ± 0.2 | -0.84 ± 0.25 | 0.0475 ± 0.13 | -0.037 ± 0.051 | -0.105 ± 0.032 | 0.0105 ± 0.026 | 0.0175 ± 0.043 | -0.0215 ± 0.033 | 0.0655 ± 0.084 | 0.008 ± 0.0014 | -0.0175 ± 0.069 | -0.063 ± 0.028 | -0.23 ± 0.033 | 0.308 ± 0.0078 | 0.319 ± 0.096 | 0.33 ± 0.077 | -0.123 ± 0.064 | -0.054 ± 0.1 | -0.619 |
